From BindingDB's records for PubMed 11082453 (Abbott Laboratories, 2000)

Assays:
[1] = molecular target: Neuropeptide Y receptor type 2 (Rattus norvegicus, UniProt Q9ERC0)
[2] = molecular target: Calcium release-activated calcium channel protein 1 (Homo sapiens, UniProt Q96D31)
[3] = molecular target: Gastrin/cholecystokinin type B receptor (Rattus norvegicus, UniProt P30553)
[4] = molecular target: Pro-neuropeptide Y (Rattus norvegicus, UniProt P07808)
[5] = molecular target: Cannabinoid receptor 2 (Rattus norvegicus, UniProt Q9QZN9)
Sequence of Cannabinoid receptor 2 (Q9QZN9 whole entry): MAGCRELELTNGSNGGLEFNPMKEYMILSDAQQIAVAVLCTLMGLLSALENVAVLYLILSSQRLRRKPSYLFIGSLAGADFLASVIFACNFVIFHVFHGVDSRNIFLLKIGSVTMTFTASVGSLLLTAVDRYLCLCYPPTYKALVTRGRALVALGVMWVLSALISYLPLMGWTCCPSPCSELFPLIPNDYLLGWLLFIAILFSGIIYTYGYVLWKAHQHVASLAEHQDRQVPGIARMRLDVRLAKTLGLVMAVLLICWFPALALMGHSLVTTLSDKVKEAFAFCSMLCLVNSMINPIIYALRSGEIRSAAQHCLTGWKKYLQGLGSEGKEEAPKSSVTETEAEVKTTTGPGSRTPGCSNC

[6] = molecular target: Prostacyclin receptor (Rattus norvegicus, UniProt P43253)
[7] = molecular target: Prostaglandin G/H synthase 1 (Rattus norvegicus, UniProt Q63921)
Sequence of Prostaglandin G/H synthase 1 (Q63921 whole entry): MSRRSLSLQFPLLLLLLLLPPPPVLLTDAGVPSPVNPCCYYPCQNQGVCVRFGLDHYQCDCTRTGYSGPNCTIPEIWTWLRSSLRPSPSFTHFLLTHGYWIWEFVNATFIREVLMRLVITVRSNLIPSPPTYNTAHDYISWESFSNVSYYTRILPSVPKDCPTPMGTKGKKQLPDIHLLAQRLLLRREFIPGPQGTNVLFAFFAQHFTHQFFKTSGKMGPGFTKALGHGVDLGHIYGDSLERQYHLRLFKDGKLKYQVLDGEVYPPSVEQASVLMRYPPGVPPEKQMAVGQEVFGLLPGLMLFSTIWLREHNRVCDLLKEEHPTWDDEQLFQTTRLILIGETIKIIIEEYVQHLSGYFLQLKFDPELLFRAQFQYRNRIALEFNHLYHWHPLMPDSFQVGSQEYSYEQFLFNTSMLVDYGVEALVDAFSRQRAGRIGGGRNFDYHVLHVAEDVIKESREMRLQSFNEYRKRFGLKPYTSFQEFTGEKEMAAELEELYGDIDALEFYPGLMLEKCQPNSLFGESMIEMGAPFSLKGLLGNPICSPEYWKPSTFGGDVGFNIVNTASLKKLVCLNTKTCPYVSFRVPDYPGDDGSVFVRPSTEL

[8] = molecular target: Vasopressin V1a receptor (Rattus norvegicus, UniProt P30560)
[9] = molecular target: D(4) dopamine receptor (Rattus norvegicus, UniProt P30729)
Sequence of D(4) dopamine receptor (P30729 whole entry): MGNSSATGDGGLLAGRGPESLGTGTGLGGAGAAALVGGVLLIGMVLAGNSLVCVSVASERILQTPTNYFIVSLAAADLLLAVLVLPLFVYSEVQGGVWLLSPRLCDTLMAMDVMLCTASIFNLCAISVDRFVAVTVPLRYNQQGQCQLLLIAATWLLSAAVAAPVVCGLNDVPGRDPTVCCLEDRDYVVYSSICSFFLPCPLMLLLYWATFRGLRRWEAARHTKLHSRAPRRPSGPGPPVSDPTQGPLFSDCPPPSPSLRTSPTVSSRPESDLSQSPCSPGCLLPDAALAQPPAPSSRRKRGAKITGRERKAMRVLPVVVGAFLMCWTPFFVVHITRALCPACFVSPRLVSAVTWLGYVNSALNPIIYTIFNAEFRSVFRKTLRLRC

[10] = molecular target: D(2) dopamine receptor (Rattus norvegicus, UniProt P61169)
[11] = molecular target: 5-hydroxytryptamine receptor 7 (Rattus norvegicus, UniProt P32305)
[12] = molecular target: D(3) dopamine receptor (Rattus norvegicus, UniProt P19020)
[13] = molecular target: Alpha-1A adrenergic receptor (Rattus norvegicus, UniProt P43140)
[14] = molecular target: Glutamate receptor ionotropic, kainate 1 (Rattus norvegicus, UniProt P22756)
[15] = molecular target: Melatonin receptor type 1A (Rattus norvegicus, UniProt P49218)
[16] = molecular target: Norepinephrine transporter (Rattus norvegicus, UniProt Q9JIA2)
[17] = molecular target: Histamine H2 receptor (Rattus norvegicus, UniProt P25102)
[18] = molecular target: Substance-K receptor (Rattus norvegicus, UniProt P16610)
Sequence of Substance-K receptor (P16610 whole entry): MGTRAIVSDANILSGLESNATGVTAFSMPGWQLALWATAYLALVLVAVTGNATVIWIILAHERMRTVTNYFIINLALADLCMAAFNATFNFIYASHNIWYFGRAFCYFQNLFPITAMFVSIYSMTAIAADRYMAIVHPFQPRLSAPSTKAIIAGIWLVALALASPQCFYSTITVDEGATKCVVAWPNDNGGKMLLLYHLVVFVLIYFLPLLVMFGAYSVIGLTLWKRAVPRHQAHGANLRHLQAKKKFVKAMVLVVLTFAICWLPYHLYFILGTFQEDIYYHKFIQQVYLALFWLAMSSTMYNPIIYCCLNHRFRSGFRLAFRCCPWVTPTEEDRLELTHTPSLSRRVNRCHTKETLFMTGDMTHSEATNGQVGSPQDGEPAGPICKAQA

[19] = molecular target: Substance-P receptor (Rattus norvegicus, UniProt P14600)
Sequence of Substance-P receptor (P14600 whole entry): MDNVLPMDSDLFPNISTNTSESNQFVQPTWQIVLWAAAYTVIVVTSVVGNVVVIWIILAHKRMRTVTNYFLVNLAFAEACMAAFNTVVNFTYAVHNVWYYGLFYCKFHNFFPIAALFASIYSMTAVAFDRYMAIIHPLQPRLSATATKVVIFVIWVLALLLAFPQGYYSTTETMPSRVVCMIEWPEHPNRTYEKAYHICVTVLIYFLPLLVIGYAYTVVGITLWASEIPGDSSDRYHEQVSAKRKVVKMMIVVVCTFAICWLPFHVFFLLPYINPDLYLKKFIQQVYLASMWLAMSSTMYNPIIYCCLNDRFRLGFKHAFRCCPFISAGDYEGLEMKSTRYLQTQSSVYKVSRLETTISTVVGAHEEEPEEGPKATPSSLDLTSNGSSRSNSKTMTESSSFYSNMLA

[20] = molecular target: Kappa-type opioid receptor (Rattus norvegicus, UniProt P34975)
Sequence of Kappa-type opioid receptor (P34975 whole entry): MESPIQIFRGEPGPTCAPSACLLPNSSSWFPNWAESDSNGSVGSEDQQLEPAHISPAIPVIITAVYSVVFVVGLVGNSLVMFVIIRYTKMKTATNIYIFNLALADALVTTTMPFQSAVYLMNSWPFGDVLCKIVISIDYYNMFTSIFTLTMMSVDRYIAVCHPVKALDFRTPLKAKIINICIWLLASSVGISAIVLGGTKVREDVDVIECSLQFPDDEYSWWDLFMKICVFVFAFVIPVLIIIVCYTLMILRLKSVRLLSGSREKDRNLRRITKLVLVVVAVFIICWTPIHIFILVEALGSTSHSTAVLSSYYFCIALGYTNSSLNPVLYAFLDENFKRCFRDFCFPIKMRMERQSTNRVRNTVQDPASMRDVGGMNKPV

[21] = molecular target: Interleukin-1 alpha (Rattus norvegicus, UniProt P16598)
[22] = molecular target: Vasopressin V2 receptor (Rattus norvegicus, UniProt Q00788)
Sequence of Vasopressin V2 receptor (Q00788 whole entry): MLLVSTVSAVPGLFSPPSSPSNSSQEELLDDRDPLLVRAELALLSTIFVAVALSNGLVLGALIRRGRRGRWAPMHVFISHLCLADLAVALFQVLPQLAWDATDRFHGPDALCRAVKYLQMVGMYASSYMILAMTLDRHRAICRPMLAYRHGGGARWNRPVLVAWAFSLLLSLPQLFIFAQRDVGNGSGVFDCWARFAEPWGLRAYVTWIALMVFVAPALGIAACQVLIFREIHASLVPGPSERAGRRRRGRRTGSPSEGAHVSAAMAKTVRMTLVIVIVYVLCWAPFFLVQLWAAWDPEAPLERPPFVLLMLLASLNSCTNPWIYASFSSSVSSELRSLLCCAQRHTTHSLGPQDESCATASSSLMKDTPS

[23] = molecular target: Endothelin-1 receptor (Rattus norvegicus, UniProt P26684)
Sequence of Endothelin-1 receptor (P26684 whole entry): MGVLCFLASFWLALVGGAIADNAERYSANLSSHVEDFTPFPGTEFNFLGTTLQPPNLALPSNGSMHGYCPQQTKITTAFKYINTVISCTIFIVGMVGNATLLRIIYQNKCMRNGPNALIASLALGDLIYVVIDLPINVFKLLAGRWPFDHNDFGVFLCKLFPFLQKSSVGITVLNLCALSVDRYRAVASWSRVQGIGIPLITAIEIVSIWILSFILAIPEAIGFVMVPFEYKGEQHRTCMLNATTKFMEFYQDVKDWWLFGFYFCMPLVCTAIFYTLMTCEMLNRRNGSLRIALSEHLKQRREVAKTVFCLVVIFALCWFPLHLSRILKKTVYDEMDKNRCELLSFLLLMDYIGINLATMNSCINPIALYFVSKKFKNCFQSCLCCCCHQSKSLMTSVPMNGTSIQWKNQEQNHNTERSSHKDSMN

[24] = molecular target: Alpha-2C adrenergic receptor (Rattus norvegicus, UniProt P22086)
[25] = molecular target: Muscarinic acetylcholine receptor M5 (Rattus norvegicus, UniProt P08911)
Sequence of Muscarinic acetylcholine receptor M5 (P08911 whole entry): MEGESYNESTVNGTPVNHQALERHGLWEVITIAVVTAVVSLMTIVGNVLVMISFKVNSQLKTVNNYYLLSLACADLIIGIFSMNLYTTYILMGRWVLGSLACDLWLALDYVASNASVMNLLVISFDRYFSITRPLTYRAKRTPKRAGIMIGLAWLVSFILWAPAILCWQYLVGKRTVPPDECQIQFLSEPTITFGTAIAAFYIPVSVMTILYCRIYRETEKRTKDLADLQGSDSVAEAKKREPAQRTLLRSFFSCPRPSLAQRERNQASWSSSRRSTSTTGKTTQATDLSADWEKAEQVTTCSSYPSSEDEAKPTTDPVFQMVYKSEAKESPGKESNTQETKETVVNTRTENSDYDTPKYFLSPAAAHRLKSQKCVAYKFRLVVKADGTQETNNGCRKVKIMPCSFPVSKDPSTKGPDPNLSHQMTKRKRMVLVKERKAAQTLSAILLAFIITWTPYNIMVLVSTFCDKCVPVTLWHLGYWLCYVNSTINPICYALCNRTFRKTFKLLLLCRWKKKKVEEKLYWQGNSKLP

[26] = molecular target: Thromboxane A2 receptor (Rattus norvegicus, UniProt P34978)
[27] = molecular target: Bombesin receptor subtype-3 (Rattus norvegicus, UniProt Q8K418)
[28] = molecular target: Prostaglandin G/H synthase 2 (Rattus norvegicus, UniProt P35355)
[29] = molecular target: 5-hydroxytryptamine receptor 5A (Rattus norvegicus, UniProt P35364)
[30] = molecular target: Voltage-dependent L-type calcium channel subunit alpha-1C (Rattus norvegicus, UniProt P22002)
[31] = molecular target: 5-hydroxytryptamine receptor 3A (Rattus norvegicus, UniProt P35563)
[32] = molecular target: 5-hydroxytryptamine receptor 6 (Rattus norvegicus, UniProt P31388)
[33] = molecular target: Cannabinoid receptor 1 (Rattus norvegicus, UniProt P20272)
[34] = molecular target: Chloride channel protein 1 (Rattus norvegicus, UniProt P35524)
[35] = molecular target: Muscarinic acetylcholine receptor M4 (Rattus norvegicus, UniProt P08485)
[36] = molecular target: Beta-1 adrenergic receptor (Rattus norvegicus, UniProt P18090)
[37] = molecular target: Amine oxidase [flavin-containing] B (Rattus norvegicus, UniProt P19643)
[38] = molecular target: Galanin peptides (Rattus norvegicus, UniProt P10683)
Sequence of Galanin peptides (P10683 33-61 limits assumed): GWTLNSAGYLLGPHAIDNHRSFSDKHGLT

[39] = molecular target: Gamma-aminobutyric acid (GABA) B receptor 1 (Rattus norvegicus, UniProt Q6MFX8)
[40] = molecular target: 5'-nucleotidase (Rattus norvegicus, UniProt P21588)
Sequence of 5'-nucleotidase (P21588 whole entry): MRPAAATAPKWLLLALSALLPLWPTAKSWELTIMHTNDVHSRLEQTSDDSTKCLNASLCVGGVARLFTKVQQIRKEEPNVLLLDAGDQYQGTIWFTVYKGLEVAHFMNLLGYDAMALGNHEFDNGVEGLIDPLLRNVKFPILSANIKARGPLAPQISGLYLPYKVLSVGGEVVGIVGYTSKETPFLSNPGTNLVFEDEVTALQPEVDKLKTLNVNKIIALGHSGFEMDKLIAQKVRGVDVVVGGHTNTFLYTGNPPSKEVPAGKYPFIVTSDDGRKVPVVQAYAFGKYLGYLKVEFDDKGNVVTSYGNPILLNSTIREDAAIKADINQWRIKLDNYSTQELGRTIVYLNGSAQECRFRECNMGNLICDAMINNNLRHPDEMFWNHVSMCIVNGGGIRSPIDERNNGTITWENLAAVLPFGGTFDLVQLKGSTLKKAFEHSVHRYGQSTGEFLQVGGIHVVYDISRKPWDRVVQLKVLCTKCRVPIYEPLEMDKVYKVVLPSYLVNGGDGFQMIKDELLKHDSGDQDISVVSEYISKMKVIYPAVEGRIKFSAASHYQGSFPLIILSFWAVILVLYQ

Sequence of Gastrin/cholecystokinin type B receptor (P30553 whole entry): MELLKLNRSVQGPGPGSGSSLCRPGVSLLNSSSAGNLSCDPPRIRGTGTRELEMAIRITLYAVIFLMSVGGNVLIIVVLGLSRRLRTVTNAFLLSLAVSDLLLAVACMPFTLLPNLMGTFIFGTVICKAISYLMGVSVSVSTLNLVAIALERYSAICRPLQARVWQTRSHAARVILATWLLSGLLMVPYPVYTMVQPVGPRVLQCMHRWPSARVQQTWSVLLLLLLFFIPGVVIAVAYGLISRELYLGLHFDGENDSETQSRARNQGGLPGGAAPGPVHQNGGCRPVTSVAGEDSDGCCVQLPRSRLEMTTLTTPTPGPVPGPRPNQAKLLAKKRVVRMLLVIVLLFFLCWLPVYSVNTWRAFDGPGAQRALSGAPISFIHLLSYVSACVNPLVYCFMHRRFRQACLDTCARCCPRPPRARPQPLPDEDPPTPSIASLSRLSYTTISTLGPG

## Nc1ncnc2nc(-c3ccc(N4CCOCC4)nc3)cc(-c3cccc(Br)c3)c12
[1]
  Ki: > 10 µM
[2]
  Ki: > 10 µM
[3]
  Ki: > 10 µM
[4]
  Ki: > 10 µM
[5]
  Ki: > 10 µM
[6]
  Ki: > 10 µM
[7]
  Ki: > 10 µM
[8]
  Ki: > 10 µM
[9]
  Ki: > 10 µM
[10]
  Ki: > 10 µM
[11]
  Ki: > 10 µM
[12]
  Ki: > 10 µM
[13]
  Ki: > 10 µM
[14]
  Ki: > 10 µM
[15]
  Ki: > 10 µM
[16]
  Ki: > 10 µM
[17]
  Ki: > 10 µM
[18]
  Ki: 8.56 µM
[19]
  Ki: > 10 µM
[20]
  Ki: 4.6 µM
[21]
  Ki: > 10 µM
[22]
  Ki: > 10 µM
[23]
  Ki: > 10 µM
[24]
  Ki: > 10 µM
[25]
  Ki: > 10 µM
[26]
  Ki: > 10 µM
[27]
  Ki: > 10 µM
[28]
  Ki: > 10 µM
[29]
  Ki: > 10 µM
[30]
  Ki: > 10 µM
[31]
  Ki: > 10 µM
[32]
  Ki: > 10 µM
[33]
  Ki: > 10 µM
[34]
  Ki: > 10 µM
[35]
  Ki: > 10 µM
[36]
  Ki: > 10 µM
[37]
  Ki: > 10 µM
[38]
  Ki: > 10 µM
[39]
  Ki: > 10 µM
[40]
  Ki: > 10 µM
